Data: patent publication US7189856B2 (priority 2001, dated 2007)
Counter-ions that a name gives are not always drawn.

Molecular target: T1, human SSTR2 receptors (Homo sapiens, UniProt P30874)
T1 construct: expressed in transfected cells; host or cells: CHO-K1 cells
Experiment: inhibition of [125I] Somatostatin binding to human SSTR2 receptors expressed in CHO-K1 cells
Description: FIG. 1 illustrates the logarithmic concentration-response curves for inhibition of [^125I] […] Test compounds were tested in duplicate at all concentrations. The average percent inhibition of duplicate was used for plotting the displacement curves, fitted by non-linear regression.
FIG. 2 illustrates the logarithmic concentration-response curves for inhibition of [^125I] […] Test compounds were tested in duplicate at all concentrations. The average percent inhibition of duplicate was used for plotting the displacement curves, fitted by non-linear regression.

T1 sequence (P30874 whole entry): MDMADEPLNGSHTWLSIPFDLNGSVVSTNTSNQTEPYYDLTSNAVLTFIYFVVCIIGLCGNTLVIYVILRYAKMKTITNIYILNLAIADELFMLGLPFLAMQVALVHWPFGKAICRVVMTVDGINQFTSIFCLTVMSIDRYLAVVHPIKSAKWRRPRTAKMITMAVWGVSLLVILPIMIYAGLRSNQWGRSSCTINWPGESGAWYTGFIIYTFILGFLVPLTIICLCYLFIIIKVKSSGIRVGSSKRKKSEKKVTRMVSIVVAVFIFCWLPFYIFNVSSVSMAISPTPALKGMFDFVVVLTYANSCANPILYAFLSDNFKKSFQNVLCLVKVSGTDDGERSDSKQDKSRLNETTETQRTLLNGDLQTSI

Structure (SMILES) | IC50 [nM]
CN(C)C(=O)c1cc(S(=O)(=O)N2C(=O)N(C[C@@H]3CCC[C@H](CN)C3)C(=O)[C@@H]2Cc2c[nH]c3ccccc23)ccc1Oc1ccc(O)c(Cl)c1 (single isomer, unassigned) [Example 15b HCl salt] | 1.3 ± 0.183
CN(C)C(=O)c1cc(S(=O)(=O)N2C(=O)N(CC3CCC[C@@H](CN)C3)C(=O)[C@@H]2Cc2c[nH]c3ccccc23)ccc1Oc1ccc(O)c(Cl)c1 (single isomer, unassigned) [Example 15a HCl salt] | 0.29 ± 0.0395
